Values quoted from earlier work, collected in PMC4950319, “Kinetic and structural characterization of amyloid‐β peptide hydrolysis by human angiotensin‐1‐converting enzyme” (The Febs Journal, 2016).

Tested on: ACE
Settings: recombinant truncated domains only; cited from earlier work
Source text: Based on our results and the synergistic effect that the C‐domain exerts on the N‐domain, the C‐domain activity is likely to be important in vivo. […] This observation is supported by the architecture of the central cavity found in tACE (human testis ACE, C‐domain equivalent) crystal structure and the chloride‐dependent substrate interactions 54, 57. The latter study, ...

Aβ(1–40): larger Aβ(1–40) substrate
competition with hippuryl‐L‐histidyl‐ L‐leucine: did not out‐compete
